# Reference: patent US20260256792A1, “TREATMENT OF CHRONIC SPONTANEOUS URTICARIA BY ADMINISTERING (R)-2-[3-[4-AMINO-3-(2-FLUORO-4-PHENOXY-PHENYL)PYRAZOLO[3,4-D]PYRIMIDIN-1-YL]PIPERIDINE-1-CARBONYL]-4-METHYL-4-[4-(OXETAN-3-YL)PIPERAZIN-1-YL]PENT-2-ENENITRILE” (priority 2023, published 2026)
# Tested on: moderate-to-severe chronic spontaneous urticaria (CSU)
# Test: Phase 2 CSU study: itch severity score over 7 days (ISS7)
# Assay type: in vivo, human
# Details: for Change from Baseline in ISS7 at Week 12, LS Mean Diff vs. placebo / Change from Baseline in ISS7 at Week 12, Mean / Change from Baseline in ISS7 at Week 12, LS Mean: Omalizumab-naïve population; for ISS7 change from baseline at Week 12, LS Mean / ISS7 change from baseline at Week 12, LS Mean Diff vs. placebo: ANCOVA
# Excerpt: The study comprises a 12 week, randomized, double-blind, placebo-controlled, multi-center, dose-ranging efficacy and safety phase, followed by a 40 week open label extension (OLE) phase (see FIG. 1). The study consists of three phases and an optional OLE phase. […] Clinically, CSU is characterized by the spontaneous and recurrent appearance of pruritic hives. The proposed primary endpoints were the UAS7 at Week 12 in EU and EU reference countries and the ISS7 in the US. Regardless of where a participant was from, all assessments were the same. The UAS7 score is a composite score containing both the HSS7 and the ISS7. This allowed a global assessment of the two key components of urticaria: hives and itch. […] The UAS is a validated PRO measure. […] The daily UAS scores range from 0 to 6 point/day. […] Patients were to complete the UAS using the e-diary. […] The following secondary endpoints were to be analyzed using the same approach as for the primary endpoint: • Change from baseline in UAS7 at Week 4 • Change from baseline in UAS7 at Week 12 (for US and US reference countries) • Change from baseline in ISS7 at Week 12 (except US and US reference countries) • Change from baseline in HSS7 at Week 12
# [1] = 400 mg BID, Race All the Others
# [2] = 400 mg BID, Region Eastern Europe
# [3] = 400 mg BID, Region Latin America
# [4] = 400 mg BID, Region Western Countries
# [5] = 400 mg BID, omalizumab-naïve population
# [6] = 400 mg BID, omalizumab-naïve population with outlier removed
# [7] = 400 mg QPM, Age group (years) <44 (Median)
# [8] = 400 mg QPM, Age group (years) <65
# [9] = 400 mg QPM, Age group (years) ≥44 (Median)
# [10] = 400 mg QPM, Baseline BHRA BHRA+
# [11] = 400 mg QPM, Baseline BHRA BHRA−
# [12] = 400 mg QPM, Baseline Eosinophils (10^9/L) <0.165 (Median)
# [13] = 400 mg QPM, Baseline Eosinophils (10^9/L) <0.3
# [14] = 400 mg QPM, Baseline Eosinophils (10^9/L) ≥0.165 (Median)
# [15] = 400 mg QPM, Baseline Eosinophils (10^9/L) ≥0.3
# [16] = 400 mg QPM, Baseline H1-antihistamines dose 1-fold
# [17] = 400 mg QPM, Baseline H1-antihistamines dose 2 to 4-fold standard dose
# [18] = 400 mg QPM, Baseline ISS7 score <13
# [19] = 400 mg QPM, Baseline ISS7 score ≥13
# [20] = 400 mg QPM, Baseline Total IgE (IU/mL) <100
# [21] = 400 mg QPM, Baseline Total IgE (IU/mL) <300
# [22] = 400 mg QPM, Baseline Total IgE (IU/mL) ≥100
# [23] = 400 mg QPM, Baseline Total IgE (IU/mL) ≥300
# [24] = 400 mg QPM, Baseline UAS7 score <28
# [25] = 400 mg QPM, Baseline UAS7 score ≥28
# [26] = 400 mg QPM, Duration of disease (years) 2-10
smiles,measurement,setting,value
"CC(C)(C=C(C#N)C(=O)N1CCC[C@@H](n2nc(-c3ccc(Oc4ccccc4)cc3F)c3c(N)ncnc32)C1)N1CCN(C2COC2)CC1 [rilzabrutinib, (R)-2-[3-[4-amino-3-(2-fluoro-4-phenoxy-phenyl)pyrazolo[3,4-d]pyrimidin-1-yl]piperidine-1-carbonyl]-4-methyl-4-[4-(oxetan-3-yl)piperazin-1-yl]pent-2-enenitrile]","Change from Baseline in ISS7 at Week 12, LS Mean Diff vs. placebo",[1],−3.52
same,"Change from Baseline in ISS7 at Week 12, Mean",[1],−6.86
same,"Change from Baseline in ISS7 at Week 12, LS Mean","400 mg BID, Race White",−7.91
same,"Change from Baseline in ISS7 at Week 12, LS Mean Diff vs. placebo","400 mg BID, Race White",−1.90
same,"Change from Baseline in ISS7 at Week 12, Mean","400 mg BID, Race White",−7.64
same,"Change from Baseline in ISS7 at Week 12, LS Mean","400 mg BID, Region Asia",−6.99
same,"Change from Baseline in ISS7 at Week 12, LS Mean Diff vs. placebo","400 mg BID, Region Asia",−3.54
same,"Change from Baseline in ISS7 at Week 12, Mean","400 mg BID, Region Asia",−6.86
same,"Change from Baseline in ISS7 at Week 12, LS Mean",[2],−4.38
same,"Change from Baseline in ISS7 at Week 12, LS Mean Diff vs. placebo",[2],8.28
same,"Change from Baseline in ISS7 at Week 12, Mean",[2],−10.81
same,"Change from Baseline in ISS7 at Week 12, LS Mean",[3],−4.75
same,"Change from Baseline in ISS7 at Week 12, LS Mean Diff vs. placebo",[3],1.84
same,"Change from Baseline in ISS7 at Week 12, Mean",[3],−4.42
same,"Change from Baseline in ISS7 at Week 12, LS Mean",[4],−10.12
same,"Change from Baseline in ISS7 at Week 12, LS Mean Diff vs. placebo",[4],−5.57
same,"Change from Baseline in ISS7 at Week 12, Mean",[4],9.95
same,"ISS7 at Week 12, Mean",[5],8.09
same,"ISS7 at Week 12, Median",[5],7.00
same,"ISS7 change from baseline at Week 12, Mean",[5],−7.40
same,"ISS7 change from baseline at Week 12, Median",[5],−7.00
same,LS mean reduction in ISS7 (see Table 30),[5],−5.06
same,"ISS7 at Week 12, Mean",[6],8.09
same,"ISS7 at Week 12, Median",[6],7.00
same,"ISS7 change from baseline at Week 12, Mean",[6],−7.40
same,"ISS7 change from baseline at Week 12, Median",[6],−7.00
same,"ISS7 change from baseline at Week 12, LS Mean",[6],−7.76 points
same,"ISS7 change from baseline at Week 12, LS Mean Diff vs. placebo",[6],−2.05
same,"ISS7 change from baseline at Week 12, LS Mean",[5],−7.73 points
same,"ISS7 change from baseline at Week 12, LS Mean Diff vs. placebo",[5],−1.96
same,"Change from Baseline in ISS7 at Week 12, LS Mean",[7],−4.68
same,"Change from Baseline in ISS7 at Week 12, LS Mean Diff vs. placebo",[7],−0.21
same,"Change from Baseline in ISS7 at Week 12, Mean",[7],−5.45
same,"Change from Baseline in ISS7 at Week 12, LS Mean",[8],−4.78
same,"Change from Baseline in ISS7 at Week 12, LS Mean Diff vs. placebo",[8],0.88
same,"Change from Baseline in ISS7 at Week 12, Mean",[8],−5.68
same,"Change from Baseline in ISS7 at Week 12, LS Mean",[9],−4.77
same,"Change from Baseline in ISS7 at Week 12, LS Mean Diff vs. placebo",[9],1.83
same,"Change from Baseline in ISS7 at Week 12, Mean",[9],−5.95
same,"Change from Baseline in ISS7 at Week 12, Mean","400 mg QPM, Age group (years) ≥65",−5.83
same,"Change from Baseline in ISS7 at Week 12, LS Mean",[10],−8.50
same,"Change from Baseline in ISS7 at Week 12, LS Mean Diff vs. placebo",[10],−3.12
same,"Change from Baseline in ISS7 at Week 12, Mean",[10],−9.13
same,"Change from Baseline in ISS7 at Week 12, LS Mean",[11],−4.66
same,"Change from Baseline in ISS7 at Week 12, Mean",[11],−5.45
same,"Change from Baseline in ISS7 at Week 12, LS Mean Diff vs. placebo","400 mg QPM, Baseline BMI (kg/m^2) ≥30",0.17
same,"Change from Baseline in ISS7 at Week 12, LS Mean",[12],−4.00
same,"Change from Baseline in ISS7 at Week 12, LS Mean Diff vs. placebo",[12],2.51
same,"Change from Baseline in ISS7 at Week 12, Mean",[12],−4.93
same,"Change from Baseline in ISS7 at Week 12, LS Mean",[13],−4.64
same,"Change from Baseline in ISS7 at Week 12, LS Mean Diff vs. placebo",[13],0.83
same,"Change from Baseline in ISS7 at Week 12, Mean",[13],−5.66
same,"Change from Baseline in ISS7 at Week 12, LS Mean",[14],−5.54
same,"Change from Baseline in ISS7 at Week 12, LS Mean Diff vs. placebo",[14],−1.46
same,"Change from Baseline in ISS7 at Week 12, Mean",[14],6.55
same,"Change from Baseline in ISS7 at Week 12, LS Mean",[15],−5.53
same,"Change from Baseline in ISS7 at Week 12, LS Mean Diff vs. placebo",[15],−0.68
same,"Change from Baseline in ISS7 at Week 12, Mean",[15],−5.81
same,"Change from Baseline in ISS7 at Week 12, LS Mean",[16],−4.24
same,"Change from Baseline in ISS7 at Week 12, LS Mean Diff vs. placebo",[16],2.59
same,"Change from Baseline in ISS7 at Week 12, Mean",[16],−5.09
same,"Change from Baseline in ISS7 at Week 12, LS Mean",[17],−5.28
same,"Change from Baseline in ISS7 at Week 12, LS Mean Diff vs. placebo",[17],−1.80
same,"Change from Baseline in ISS7 at Week 12, Mean",[17],−6.37
same,"Change from Baseline in ISS7 at Week 12, LS Mean",[18],−1.87
same,"Change from Baseline in ISS7 at Week 12, LS Mean Diff vs. placebo",[18],0.85
same,"Change from Baseline in ISS7 at Week 12, Mean",[18],−4.42
same,"Change from Baseline in ISS7 at Week 12, LS Mean",[19],−5.38
same,"Change from Baseline in ISS7 at Week 12, LS Mean Diff vs. placebo",[19],0.36
same,"Change from Baseline in ISS7 at Week 12, Mean",[19],−5.78
same,"Change from Baseline in ISS7 at Week 12, LS Mean",[20],−3.37
same,"Change from Baseline in ISS7 at Week 12, LS Mean Diff vs. placebo",[20],0.87
same,"Change from Baseline in ISS7 at Week 12, Mean",[20],−4.48
same,"Change from Baseline in ISS7 at Week 12, LS Mean",[21],−4.46
same,"Change from Baseline in ISS7 at Week 12, LS Mean Diff vs. placebo",[21],0.05
same,"Change from Baseline in ISS7 at Week 12, Mean",[21],−5.41
same,"Change from Baseline in ISS7 at Week 12, LS Mean",[22],−5.51
same,"Change from Baseline in ISS7 at Week 12, LS Mean Diff vs. placebo",[22],0.52
same,"Change from Baseline in ISS7 at Week 12, Mean",[22],−6.28
same,"Change from Baseline in ISS7 at Week 12, LS Mean",[23],−4.90
same,"Change from Baseline in ISS7 at Week 12, LS Mean Diff vs. placebo",[23],1.64
same,"Change from Baseline in ISS7 at Week 12, Mean",[23],−6.11
same,"Change from Baseline in ISS7 at Week 12, LS Mean",[24],−3.33
same,"Change from Baseline in ISS7 at Week 12, LS Mean Diff vs. placebo",[24],−0.15
same,"Change from Baseline in ISS7 at Week 12, Mean",[24],−5.32
same,"Change from Baseline in ISS7 at Week 12, LS Mean",[25],−5.59
same,"Change from Baseline in ISS7 at Week 12, LS Mean Diff vs. placebo",[25],1.01
same,"Change from Baseline in ISS7 at Week 12, Mean",[25],−5.78
same,"Change from Baseline in ISS7 at Week 12, LS Mean",[26],−5.24
same,"Change from Baseline in ISS7 at Week 12, LS Mean Diff vs. placebo",[26],1.79
same,"Change from Baseline in ISS7 at Week 12, Mean",[26],−6.43
